This test has as its target T1, KRAS G12D (Homo sapiens, UniProt P01116, G12D).
T1 construct: host or cells: AsPC-1 human pancreatic cancer cells
The test can be described thus: Test Example 1-2: KRAS degradation action in AsPC-1, Cell ELISA. The test is classed as cell-based. The settings on record: AsPC-1 cells, overnight treatment, corrected with β-actin, 0% = 10 μM Example No. 26 (Example No. 8 for Example Nos. 74 and 75). On the procedure: Test Example 1-2: Evaluation of KRAS Degradation Action on Human G12D Mutant KRAS-Positive Pancreatic Cancer Line AsPC-1
The KRAS degradation action of test compounds was evaluated by measuring the expression levels of KRAS G12D by Cell ELISA.
[…] As for the cell culture conditions, a RPMI 1640 medium containing 10% fetal bovine serum was used in the presence of 5% CO2 at 37° C. The next day, the test compounds (10 points having final concentrations in the range of 10 μM to 0.3 nM), the compound of Example No. 26 (Example No. 8 for Example Nos. 74 and 75) of a final concentration of 10 μM as a positive control and DMSO, which was the solvent for the test compounds, as a negative control were diluted 500-fold with a fresh medium and were added at 20 μL per well. The cells were cultured overnight.
The next day, the culture supernatant was removed, and 4% paraformaldehyde phosphate buffer (from FUJIFILM Wako Pure Chemical Corporation) was added at 20 μL per well. The plate was allowed to stand for 30 minutes at room temperature to thus immobilize the cells. Then, the supernatant was removed, and 0.1% Triton X-100 (from Amersham Biosciences)-containing PBS was added at 20 μL per well. After allowing to stand for 10 minutes at room temperature, the supernatant was removed. PBS was added at 25 μL per well, and the supernatant was removed to thus wash each well. The washing was performed twice in total. Next, the supernatant was removed, and 0.5% sodium dodecyl sulfate (SDS; from Invitrogen)-containing PBS was added at 20 μL per well. After allowing to stand at room temperature for 10 minutes, the supernatant was removed by centrifugation (using a centrifugal dehydrator machine, the supernatant was removed by the same method hereinafter). PBS was added at 25 μL per well, and the supernatant was removed to thus wash each well. The washing was performed twice in total. The supernatant was removed by centrifugation, and a blocking solution (Intercept Blocking Buffer) was added at 20 μL per well. After allowing to stand for 30 minutes at room temperature, the supernatant was removed by centrifugation, and a solution obtained by diluting an anti-Ras (G12D Mutant Specific) antibody and an anti-3-actin antibody 1,000-fold with a blocking solution was added at 20 μL per well as a primary antibody. The plate was allowed to stand overnight at 4° C.
The next day, the plate was centrifuged to remove the supernatant. PBS was added at […], and the supernatant was removed to thus wash each well. The washing was performed twice in total. The supernatant was removed by centrifugation, and a solution obtained by diluting Donkey anti-Mouse IgG H&L (TRDye 680RD) (from Li—COR Biosciences) and Goat anti-Rabbit IgG H&L (IRDye 800CW) (from Li—COR Biosciences) 1,000-fold with a blocking solution was added at 20 μL per well as a secondary antibody. After allowing to stand for 1 hour at room temperature, the supernatant was removed. PBS was added at 25 μL per well, and the supernatant was removed to thus wash each well. The washing was performed twice in total. After removing the supernatant by centrifuging the plate, the plate was dried as it was with air at room temperature for 2 hours or more, and the 700-nm and 800-nm fluorescent signals were measured with Aerius (from LI-COR Biosciences).
With the signaling value at the time of addition of DMSO corrected with the signaling value of β-actin taken as 100% and with the signaling value at the time of addition of 10 μM of the compound of Example No. 26 taken as 0%, the 50% degradation values (DC50) of the amounts of KRAS were calculated by Sigmoid-Emax model nonlinear regression analysis. The molecular weights of the test compounds were calculated as the molecular weights of the trihydrochloride for Example No. 30, the tetrahydrochloride for Example No. 46 and the free forms forming no salt for the remaining Example Nos. The results for some test compounds of the formula (I) are shown in Table 2.
A general note: ELISA stands for enzyme-linked immunosorbent assay.

T1 sequence (P01116 1-188 isoform P01116-2 G12D): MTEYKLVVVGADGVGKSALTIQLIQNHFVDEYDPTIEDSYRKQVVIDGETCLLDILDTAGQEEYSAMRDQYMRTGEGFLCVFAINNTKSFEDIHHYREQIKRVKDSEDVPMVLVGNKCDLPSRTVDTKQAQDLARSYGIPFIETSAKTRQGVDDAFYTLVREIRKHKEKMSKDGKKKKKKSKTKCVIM

For orientation: DC50 means the concentration at which degradation of the target reaches its halfway point. Read a high DC50 as degradation only at high concentration. With `Cc1ncsc1-c1ccc([C@H](CO)NC(=O)[C@@H]2C[C@@H](O)CN2C(=O)[C@@H](NC(=O)CCN(C)C(=O)c2ccc(COc3c(-c4c(C)c(F)cc5[nH]ncc45)c(C4CC4)cc4c(N5C[C@@H]6C[C@H]5CN6)nc(OC5CCOCC5)nc34)cc2)C(C)C)cc1` [Example 74], half-maximal degradation (DC50) was put at 1 µM.

For `Cc1ncsc1-c1ccc([C@H](CO)NC(=O)[C@@H]2C[C@@H](O)CN2C(=O)[C@@H](NC(=O)C[C@@H]2CCN(C(=O)c3ccc(COc4c(-c5c(C)c(F)cc6[nH]ncc56)c(C5CC5)cc5c(N6C[C@@H]7C[C@H]6CN7)nc(OC6CCOCC6)nc45)cc3)C2)C(C)C)cc1` [Example 75], the DC50 stood at 5.89 µM.

For the origin of these results see patent US20250340561A1, “QUINAZOLINE COMPOUND FOR INDUCING DEGRADATION OF G12D MUTANT KRAS PROTEIN” (Astellas Pharma Inc., priority 2021, published 2025).
